Data: US20220185832A1, “CD73 INHIBITORS” (BioArdis LLC, priority 2019, published 2022)

Tests used:
[1] = target: T1, Recombinant Human 5′-Nucleotidase (CD73) (Homo sapiens, UniProt P21589); assay: CD73 Enzyme Assay; format: biochemical; details: 0.5 nM human CD73, 30 μM AMP, PiColorLock phosphate detection, OD 635 nm; read-out: Potency (IC50)
T1 construct: CHO derived CD73 (Trp27-Lys547), with a C-terminal 6-His tag; 6-His (C); purchased R&D 5795-EN; host or cells: CHO
T1 sequence (P21589 27-547): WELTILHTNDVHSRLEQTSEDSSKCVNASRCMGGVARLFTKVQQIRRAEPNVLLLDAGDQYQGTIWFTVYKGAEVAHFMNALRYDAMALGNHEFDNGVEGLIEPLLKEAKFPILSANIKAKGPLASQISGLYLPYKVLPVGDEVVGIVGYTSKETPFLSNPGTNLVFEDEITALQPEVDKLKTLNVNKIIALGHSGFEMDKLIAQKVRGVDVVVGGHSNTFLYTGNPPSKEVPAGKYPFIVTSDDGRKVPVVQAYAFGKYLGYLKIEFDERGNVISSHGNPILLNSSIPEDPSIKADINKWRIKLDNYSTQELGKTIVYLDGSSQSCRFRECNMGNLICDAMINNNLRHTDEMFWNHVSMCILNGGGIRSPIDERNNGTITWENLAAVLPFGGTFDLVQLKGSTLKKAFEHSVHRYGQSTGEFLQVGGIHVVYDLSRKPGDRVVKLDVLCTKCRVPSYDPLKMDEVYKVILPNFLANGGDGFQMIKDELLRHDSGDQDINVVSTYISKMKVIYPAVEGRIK
Text: Soluble recombinant CD73 catalyzes the conversion of adenosine monophosphate (AMP) to adenosine and inorganic phosphate. The phosphate detection reagent, PiColorLock™ (Innova Bioscience, Cat #303-0125) is based on the change in absorbance of the dye malachite green in the presence of inorganic phosphate (Pi) and this property can be exploited to measure any enzyme that generates Pi. Recombinant Human 5′-Nucleotidase (CD73) (R&D #5795-EN, CHO derived CD73 (Trp27-Lys547), with a C-terminal 6-His tag) was used in the enzymatic assay. This assay was run in a 384-well plate format (Corning® NBS™ 384 well plates, Cat #3640). The basic assay procedure involves two steps: 1) Enzyme reaction: The CD73 enzyme (R&D #5795-EN) is incubated in the presence or absence of compounds. AMP (sigma, cat #01930) is added to start the kinase reaction. 2) Detection step: “Gold mix” is added to the assay system, then stabilizers are added. After incubation the absorbance of the solution is read at OD 635 nm. The recorded OD signal is proportional to the enzyme activity.
Briefly, 25 μl human CD73 (0.5 nM final concentration) in the enzymatic buffer solutions (20 mM Tris, 25 mM NaCl, 1 mM MgCl2, pH 7.5, 0.005% Tween-20) were mixed with various concentrations of the test compound (dissolved in 100% DMSO). These solutions were incubated for 15 min at 25° C., and subsequently 25 μl AMP (30 μM final concentration) was added to start the reaction. The final reaction mixture of enzyme-substrate-compound was incubated for 20 min at 37° C. Meanwhile, “Gold mix” was prepared shortly before use by adding 1/100 vol. of accelerator to the PiColorLock™ Gold reagent. 12 μL/well of the “Gold mix” was added to assay plate containing 50 μL enzyme reaction buffer and incubated at 25° C. for 5 min. 5 μL/well stabilizer was added to the assay plate and incubated at 25° C. for 30 min. The absorbance of the well solutions was measured at 635 nm on a Spark 10M instrument (TECAN).
(§1) The percent (%) inhibition at each concentration of a compound was calculated relative to the OD value in the Max and Min control wells contained within each assay plate. The Max control wells contained enzyme and substrate as 0% inhibition, and the Min control wells only contained substrate without enzyme as 100% inhibition. The concentrations and percent inhibition values for a test compound are plotted and the concentration of the compound required to achieve 50% inhibition (IC50) was determined with a four-parameter logistic dose response equation.

[2] = target: T2, Cell surface CD73 of U87 MG human glioblastoma cells (Homo sapiens, UniProt P21589); assay: CD73 Cellular Assay; format: cell-based; details: 5000 cells per well, 30 μM AMP, PiColorLock phosphate detection in supernatant, read-out: Potency (IC50)
T2 construct: Cell surface CD73 catalyzes the conversion of adenosine monophosphate (AMP) to adenosine and inorganic phosphate; endogenous in cells; host or cells: U87 MG human glioblastoma cells
T2 sequence (P21589 27-549): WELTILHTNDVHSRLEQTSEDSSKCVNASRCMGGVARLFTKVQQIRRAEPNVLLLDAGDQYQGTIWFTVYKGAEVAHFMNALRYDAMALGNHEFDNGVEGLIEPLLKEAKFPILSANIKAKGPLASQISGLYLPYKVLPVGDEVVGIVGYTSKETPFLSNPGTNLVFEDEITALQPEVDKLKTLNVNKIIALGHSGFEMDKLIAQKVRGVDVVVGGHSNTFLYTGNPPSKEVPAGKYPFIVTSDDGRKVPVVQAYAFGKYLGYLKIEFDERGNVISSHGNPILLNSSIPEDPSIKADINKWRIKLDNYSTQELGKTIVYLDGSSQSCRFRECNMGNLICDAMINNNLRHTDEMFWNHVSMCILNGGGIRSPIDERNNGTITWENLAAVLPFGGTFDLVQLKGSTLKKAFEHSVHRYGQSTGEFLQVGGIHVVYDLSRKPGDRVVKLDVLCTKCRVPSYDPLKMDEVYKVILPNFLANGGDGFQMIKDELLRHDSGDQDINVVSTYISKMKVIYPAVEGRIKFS
Protocol: Cell surface CD73 catalyzes the conversion of adenosine monophosphate (AMP) to adenosine and inorganic phosphate. U87 MG human glioblastoma cells express high level of CD73. Cells are treated with compounds in a 96-well assay plate and supernatants are collected into a 384-well detection plate. The concentration of inorganic phosphate (Pi) in the supernatants is determined using the phosphate detection reagent, PiColorLock™ (Innova Bioscience, Cat #303-0125) following the manufacturer's instructions.
Briefly, on the day of the assay, U87 MG cells were harvested and resuspended in assay buffer which consisted of 20 mM HEPES, pH=7.4, 137 mM NaCl, 5.4 mM KCl, 1.3 mM CaCl2, 4.2 mM NaHCO3 and 0.1% glucose. To test the effect of compounds on cellular CD73 enzymatic activity, 500 nL/well of compounds dissolved in DMSO were added to a 96-well TC-treated microplate (Corning #3599). Next, 80 μL/well of U87 MG cells in assay buffer were added to assay plate. After 30 minutes of incubation in an atmosphere of 5% CO2 at 37° C., 20 μL/well of 150 μM AMP (Adenosine 5′-monophosphate monohydrate, Sigma, Cat #01930) in assay buffer was added to assay plate. Final assay conditions consisted of 5000 cells per well in 0.5% DMSO and 30 μM AMP substrate. After 50 minutes of incubation in an atmosphere of 5% CO2 at 37° C., 50 μL/well of supernatant was transferred to the 384-well detection plate (Corning® NBSTM 384 well plates, Cat #3640). Meanwhile “Gold mix” was prepared shortly before use by adding 1/100 volume of accelerator to the PiColorLock™ Gold reagent. 12 μL/well of the “Gold mix” was added to detection plate containing 50 μL/well of supernatant and incubated at 25° C. for 5 minutes. 5 μL/well stabilizer was added to the detection plate and incubated at 25° C. for 30 minutes. The absorbance at 635 nm was measured on a Spark 10M instrument (TECAN).
as §1, with “cells” for “enzyme”, “cells” for “substrate without enzyme”

Row | Structure (SMILES) | IC50 [1] [nM] | IC50 [2] [nM]
1 | O=P(O)(O)CP(=O)(O)OC[C@H]1O[C@@H](c2ccc3c(NCC4CCCC4)nc(Cl)nc3c2)[C@H](O)[C@@H]1O [Compound 5, (((((2R,3S,4R,5S)-5-(2-chloro-4-((cyclopentylmethyl)amino)quinazolin-7-yl)-3,4-dihydroxytetrahydrofuran-2-yl)methoxy)(hydroxy)phosphoryl)methyl)phosphonic acid] | 10 to 99 | < 10
2 | O=P(O)(O)CP(=O)(O)OC[C@H]1O[C@@H](c2ccc3c(NCC4CCCO4)nc(Cl)nc3c2)[C@H](O)[C@@H]1O (stereo partly drawn) [Compound 6, (((((2R,3S,4R,5S)-5-(2-chloro-4-(((tetrahydrofuran-2-yl)methyl)amino)quinazolin-7-yl)-3,4-dihydroxytetrahydrofuran-2-yl)methoxy)(hydroxy)phosphoryl)methyl)phosphonic acid] | 10 to 99 | < 10
3 | O=P(O)(O)CP(=O)(O)OC[C@H]1O[C@@H](c2ccc3c(NC4CCC4)nc(Cl)nc3c2)[C@H](O)[C@@H]1O [Compound 7, (((((2R,3S,4R,5S)-5-(2-chloro-4-(cyclobutylamino)quinazolin-7-yl)-3,4-dihydroxytetrahydrofuran-2-yl)methoxy)(hydroxy)phosphoryl)methyl)phosphonic acid] | 10 to 99 | < 10
4 | O=P(O)(O)CP(=O)(O)OC[C@H]1O[C@@H](c2ccc3c(NCC4CCC4)nc(Cl)nc3c2)[C@H](O)[C@@H]1O [Compound 8, (((((2R,3S,4R,5S)-5-(2-chloro-4-((cyclobutylmethyl)amino)quinazolin-7-yl)-3,4-dihydroxytetrahydrofuran-2-yl)methoxy)(hydroxy)phosphoryl)methyl)phosphonic acid] | < 10 | < 10
5 | O=P(O)(O)CP(=O)(O)OC[C@H]1O[C@@H](c2ccc3c(NCC4CC4)nc(Cl)nc3c2)[C@H](O)[C@@H]1O [Compound 9, (((((2R,3S,4R,5S)-5-(2-chloro-4-((cyclopropylmethyl)amino)quinazolin-7-yl)-3,4-dihydroxytetrahydrofuran-2-yl)methoxy)(hydroxy)phosphoryl)methyl)phosphonic acid] | 10 to 99 | < 10
6 | CN(c1ncnc2cc([C@@H]3O[C@H](COP(=O)(O)CP(=O)(O)O)[C@@H](O)[C@H]3O)ccc12)C1CCCC1 [Compound 10, (((((2R,3S,4R,5S)-5-(4-(cyclopentyl(methyl)amino)quinazolin-7-yl)-3,4-dihydroxytetrahydrofuran-2-yl)methoxy)(hydroxy)phosphoryl)methyl)phosphonic acid] | 10 to 99 | < 10
7 | O=P(O)(O)CP(=O)(O)OC[C@H]1O[C@@H](c2ccc3c(NCc4ccccc4)ncnc3c2)[C@H](O)[C@@H]1O [Compound 12, [({[(2R,3S,4R,5S)-5-[4-(benzylamino)quinazolin-7-yl]-3,4-dihydroxyoxolan-2-yl]methoxy}(hydroxy)phosphoryl)methyl]phosphonic acid] | 10 to 99 | < 10
8 | O=P(O)(O)CP(=O)(O)OC[C@H]1O[C@@H](c2ccc3c(NCc4ccccc4)nc(Cl)nc3c2)[C@@H](F)[C@@H]1O [Compound 13, (((((2R,3R,4S,5S)-5-(4-(benzylamino)-2-chloroquinazolin-7-yl)-4-fluoro-3-hydroxytetrahydrofuran-2-yl)methoxy)(hydroxy)phosphoryl)methyl)phosphonic acid] | 100 to 999 | 10 to 99
9 | Cc1nc(NCc2ccccc2)c2ccc([C@@H]3O[C@H](COP(=O)(O)CP(=O)(O)O)[C@@H](O)[C@H]3O)cc2n1 [Compound 17, (((((2R,3S,4R,5S)-5-(4-(benzylamino)-2-methylquinazolin-7-yl)-3,4-dihydroxytetrahydrofuran-2-yl)methoxy)(hydroxy)phosphoryl)methyl)phosphonic acid] | 10 to 99 | < 10
10 | C=Cc1nc(NCc2ccccc2)c2ccc([C@@H]3O[C@H](COP(=O)(O)CP(=O)(O)O)[C@@H](O)[C@H]3O)cc2n1 [Compound 18, [({[(2R,3S,4R,5S)-5-[4-(benzylamino)-2-ethenylquinazolin-7-yl]-3,4-dihydroxyoxolan-2-yl]methoxy}(hydroxy)phosphoryl)methyl]phosphonic acid] | 10 to 99 | < 10
11 | O=P(O)(O)CP(=O)(O)OC[C@H]1O[C@@H](c2ccc3c(NC4CCOC4)nc(Cl)nc3c2)[C@H](O)[C@@H]1O (stereo partly drawn) [Compound 22, (((((2R,3S,4R,5S)-5-(2-chloro-4-((tetrahydrofuran-3-yl)amino)quinazolin-7-yl)-3,4-dihydroxytetrahydrofuran-2-yl)methoxy)(hydroxy)phosphoryl)methyl)phosphonic acid] | < 10 | < 10
